From ChEMBL document CHEMBL1201862, “PubChem BioAssay data set” (2004) come the findings set out here.

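Five compound concentrations were applied to cells in 96-well plates for 48 hours; endpoints were derived by simple linear interpolation of the resulting dose-response curve. GI50: concentration for 50% inhibition of growth.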 Active and inactive are the calls of the source. Cut-off read from the data, not from the text of the source: active = GI50 up to about 1.1 µM and inactive = higher.

Common to all, as to test: NCI tumour cell line growth inhibition, 48 h
Test [1] concerns CCRF-CEM.
The subject of test [2] is BT-549.
Test [3] concerns LOX IMVI.
Test [4] relates to OVCAR-5.
Test [5] relates to NCI-H460.
The subject of test [6] is HL-60.
For test [7], the system named is RXF 393.
In test [8] the test system is HOP-92.
The subject of test [9] is 786-0.
The test system of test [10] is SF-539.
For test [11], the system named is EKVX.
For test [12], the system named is SK-MEL-2.
Test [13] deals with DU-145.
For test [14], the system named is UACC-62.
Test [15] concerns RPMI-8226.
The subject of test [16] is SF-268.
For test [17], the system named is PC-3.
Test [18] relates to HCC 2998.
Test [19] relates to CAKI-1.
Test [20] relates to SK-MEL-28.

Turning to `CN(C)c1ccc(C(=O)NCCCCCCC(=O)NO)cc1`, the GI50 in test [1] is 0.238 µM (active); in test [2], 1.7 µM (inactive); in test [3], 0.272 µM (active); in test [4], 0.218 µM (active); in [5], 0.417 µM (active); in [6], 0.397 µM (active). For the same compound, the GI50 in test [7] is 0.303 µM (active); in test [8], 0.713 µM (active); in [9] it was 0.973 µM (active); in test [10], 0.589 µM (active); in test [11], 1.52 µM (inactive); in test [12], 0.19 µM (active). The GI50 in [13] was 0.335 µM (active); in test [14], 0.275 µM (active); in test [15], 0.195 µM (active); in test [16] it was 0.435 µM (active); in test [17], 0.53 µM (active); in [18], 0.348 µM (active). Further, the results for the GI50 in [19] and in test [20] were 0.465 µM (active) and 0.434 µM (active), respectively.

As for `N#CCCN(CCCN(C(=O)Nc1ccc(NC(=O)N(CCCN(CCC#N)C(N)=O)c2ccccc2)cc1)c1ccccc1)C(N)=O`, the GI50 in test [1] was 87.5 µM (inactive); in test [2], > 100 µM (inactive); in [3], > 100 µM (inactive); in test [4], > 100 µM (inactive); in test [5] it was > 100 µM (inactive); in test [6], > 100 µM (inactive). Moreover, the GI50 in [7], in test [8], in test [9], in [10], in test [11] and in test [12] was > 100 µM (inactive) in each case. For the same compound, the GI50 in test [13], in [14], in test [15], in test [16], in [17] and in test [18] was > 100 µM (inactive) in each case. The GI50 in [19] and in test [20] was > 100 µM (inactive) in each case.

For the compound `O=c1c2ccccc2n2nnc3ccc(NCCCNCCNCCCNc4ccc5nnn6c7ccccc7c(=O)c4c56)c1c32`, the GI50 is 0.448 µM (active) in test [1]; 7.36 µM (inactive) in test [2]; 0.566 µM (active) in [3]; 6.44 µM (inactive) in [4]; 0.505 µM (active) in test [5]; 1.1 µM (active) in test [6]. In addition, the GI50 is 1.37 µM (inactive) in [7]; > 10.6 µM (inactive) in [8]; 0.48 µM (active) in [9]; 0.724 µM (active) in test [10]; 7.03 µM (inactive) in [11]; > 50 µM (inactive) in test [12]. The GI50 is 5.77 µM (inactive) in test [13]; 14.1 µM (inactive) in [14]; 0.716 µM (active) in [15]; 1.79 µM (inactive) in test [16]; 3.21 µM (inactive) in test [17]; 0.308 µM (active) in [18]. Also, the GI50 in test [19] is 3.86 µM (inactive); in [20], > 18.5 µM (inactive).

Take `CCCCCCCCCCCCCCCC(=O)OC(COC(C)=O)CO[PH](=O)O` (stereo not given): the GI50 in test [1] was 37.2 µM (inactive); in test [2], > 100 µM (inactive); in [3], 23.2 µM (inactive); in test [4], 16.1 µM (inactive); in test [5] it was 31.6 µM (inactive); in test [6] it was 31.9 µM (inactive). Also, the GI50 in [7] is 36 µM (inactive); in test [8], 12 µM (inactive); in test [9] it was 20.3 µM (inactive); in test [10] it was 20.8 µM (inactive); in [11] it was 49.3 µM (inactive); in test [12] it was 19.5 µM (inactive). For the same compound, the GI50 in test [13] was 71.4 µM (inactive); in test [14] it was 37.3 µM (inactive); in test [15], 78.2 µM (inactive); in [16], 19.3 µM (inactive); in test [17], 30.5 µM (inactive); in test [18], 21.4 µM (inactive). Also, the GI50 in test [19] is 41.9 µM (inactive); in test [20], 35.2 µM (inactive).

Turning to `CN(CC1(CO)CCC1)c1cc(Cl)nc(N)n1`, the GI50 in [1], in [2], in test [3], in [4], in [5] and in [6] was > 100 µM (inactive) in each case. For the same compound, the GI50 in [7] is > 100 µM (inactive); in test [8], > 100 µM (inactive); in [9], > 100 µM (inactive); in test [10], > 100 µM (inactive); in [11] it was 43.3 µM (inactive); in [12], > 100 µM (inactive). Also, the GI50 in test [13], in test [14], in test [15], in test [16], in test [17] and in [18] was > 100 µM (inactive) each time. The GI50 in test [19] and in [20] was > 100 µM (inactive) each time.

On to `CN(C)CCNC(=O)C(C)(C)Oc1ccc(C(=O)c2ccc(Cl)cc2)cc1Cl`, for which the GI50 in [1] is 33.4 µM (inactive); in [2] it was 11.5 µM (inactive); in test [3] it was 7.11 µM (inactive); in test [4], 15.1 µM (inactive); in test [5], 7.98 µM (inactive); in test [6] it was 5.26 µM (inactive). For the same compound, the GI50 in test [7] was 7.52 µM (inactive); in test [8], 6 µM (inactive); in test [9] it was 3.91 µM (inactive); in test [10] it was 9.46 µM (inactive); in [11], 11.2 µM (inactive); in [12], 18 µM (inactive). For the same compound, the GI50 was 13.2 µM (inactive) in [13]; 2.04 µM (inactive) in test [14]; 3.94 µM (inactive) in test [15]; 13.7 µM (inactive) in [16]; 11.5 µM (inactive) in test [17]; 5.21 µM (inactive) in test [18]. Also, the figures for the GI50 in test [19] and in test [20] were 13.1 µM (inactive) and 1.94 µM (inactive), respectively.

In the case of `COc1ccc(/N=C2\C(=S)N(c3ccc(OC)cc3)/C(=N/S(=O)(=O)c3ccccc3)N2c2ccccc2)cc1`, the GI50 is 2.59 µM (inactive) in [1]; 4.94 µM (inactive) in [2]; 3.59 µM (inactive) in test [3]; 17.3 µM (inactive) in test [4]; 23.8 µM (inactive) in test [5]; 0.986 µM (active) in test [6]. Besides, the GI50 in test [7] is 5.22 µM (inactive); in [8], 7.01 µM (inactive); in test [9], 7.14 µM (inactive); in test [10] it was 9.12 µM (inactive); in test [11], 16.4 µM (inactive); in test [12] it was 7.64 µM (inactive). The GI50 in test [13] was 22.1 µM (inactive); in [14] it was 6.07 µM (inactive); in test [15] it was 1.45 µM (inactive); in test [16], 8.87 µM (inactive); in [17], 4.67 µM (inactive); in [18] it was > 34.5 µM (inactive). Moreover, the GI50 is 13.2 µM (inactive) in [19] and 13.8 µM (inactive) in test [20].

Take `C[n+]1c2ccccc2c(CNC(CCC(N)=O)C(=O)O)c2ccccc21` (stereo not given): the GI50 is 0.366 µM (active) in test [1]; 4.59 µM (inactive) in [2]; 1.94 µM (inactive) in test [3]; 9.1 µM (inactive) in [4]; 3.72 µM (inactive) in test [5]; 0.239 µM (active) in test [6]. Also, the GI50 in [7] is 1.99 µM (inactive); in [8] it was 0.948 µM (active); in test [9] it was 1.01 µM (active); in test [10], 2.34 µM (inactive); in test [11], 6.75 µM (inactive); in [12], 4.76 µM (inactive). Also, the GI50 in test [13] is 5.52 µM (inactive); in test [14], 2.23 µM (inactive); in test [15], 0.39 µM (active); in test [16], 1.77 µM (inactive); in [17], 5.61 µM (inactive); in test [18], 4.24 µM (inactive). Further, the GI50 in [19] is 2.36 µM (inactive); in [20] it was 5.96 µM (inactive).

As for `NNc1ccccc1Cl`, the GI50 in test [1] was 43.1 µM (inactive); in test [2] it was > 100 µM (inactive); in [3], > 100 µM (inactive); in [4], > 100 µM (inactive); in test [5], 41.4 µM (inactive); in test [6], 2.88 µM (inactive). In addition, the GI50 in test [7], in test [8], in [9], in test [10], in [11] and in [12] was > 100 µM (inactive) throughout. Besides, the GI50 in [13] was > 100 µM (inactive); in [14] it was 23.4 µM (inactive); in test [15] it was > 100 µM (inactive); in [16], > 100 µM (inactive); in test [17] it was 69.2 µM (inactive); in test [18], > 100 µM (inactive). Also, the GI50 in test [19] is 30.9 µM (inactive); in test [20], > 100 µM (inactive).
